Source: ChEMBL document CHEMBL3217526, “Bioguided discovery and pharmacophore modeling of the mycotoxic indole diterpene alkaloids penitrems as breast cancer proliferation, migration, and invasion inhibitors” (Medchemcomm, 2013)

What was measured:
Assay type in all cases: functional
MOLT-4 = test: Cytotoxicity against human MOLT4 cells assessed as growth inhibition at 10 uM; conditions: read-out: GI
SF-268 = test: Cytotoxicity against human SF268 cells assessed as growth inhibition at 10 uM; conditions: read-out: GI
MDA-MB-231 [1] = test: Antiinvasive activity against human MDA-MB-231 cells assessed as inhibition of cell invasion at 15 uM after 24 hrs by BME Cell invasion assay kit; conditions: MDA-MB-231, 24 h
HOP-62 = test: Cytotoxicity against human HOP62 cells assessed as growth inhibition at 10 uM; conditions: read-out: GI
SK-MEL-5 = test: Cytotoxicity against human SK-MEL-5 cells assessed as growth inhibition at 10 uM; conditions: read-out: GI
M14 = test: Cytotoxicity against human M14 cells assessed as growth inhibition at 10 uM; conditions: read-out: GI
KM12 = test: Cytotoxicity against human KM12 cells assessed as growth inhibition at 10 uM; conditions: read-out: GI
PC-3 = test: Cytotoxicity against human PC3 cells assessed as growth inhibition at 10 uM; conditions: read-out: GI
ACHN = test: Cytotoxicity against human ACHN cells assessed as growth inhibition at 10 uM; conditions: read-out: GI
[2] = Cytotoxicity against human UACC257 cells assessed as growth inhibition at 10 uM; conditions: UACC-257, read-out: GI
SK-OV-3 = test: Cytotoxicity against human SKOV3 cells assessed as growth inhibition at 10 uM; conditions: read-out: GI
786-0 = test: Cytotoxicity against human 786-0 cells assessed as growth inhibition at 10 uM; conditions: read-out: GI
DU-145 = test: Cytotoxicity against human DU145 cells assessed as growth inhibition at 10 uM; conditions: read-out: GI
K562 = test: Cytotoxicity against human K562 cells assessed as growth inhibition at 10 uM; conditions: read-out: GI
[3] = Cytotoxicity against human OVCAR8 cells assessed as growth inhibition at 10 uM; conditions: OVCAR-8, read-out: GI
HCT-116 = test: Cytotoxicity against human HCT116 cells assessed as growth inhibition at 10 uM; conditions: read-out: GI
NCI-H23 = test: Cytotoxicity against human NCI-H23 cells assessed as growth inhibition at 10 uM; conditions: read-out: GI
IGROV-1 = test: Cytotoxicity against human IGROV1 cells assessed as growth inhibition at 10 uM; conditions: read-out: GI
U-251 = test: Cytotoxicity against human U251 cells assessed as growth inhibition at 10 uM; conditions: read-out: GI
[4] = Cytotoxicity against human EKVX cells assessed as growth inhibition at 10 uM; conditions: read-out: GI
LOX IMVI = test: Cytotoxicity against human LOXIMVI cells assessed as growth inhibition at 10 uM; conditions: read-out: GI
HCC 2998 = test: Cytotoxicity against human HCC2998 cells assessed as growth inhibition at 10 uM; conditions: read-out: GI
NCI-H226 = test: Cytotoxicity against human NCI-H226 cells assessed as growth inhibition at 10 uM; conditions: read-out: GI
[5] = Cytotoxicity against human OVCAR3 cells assessed as growth inhibition at 10 uM; conditions: OVCAR-3, read-out: GI
SK-MEL-28 = test: Cytotoxicity against human SK-MEL-28 cells assessed as growth inhibition at 10 uM; conditions: read-out: GI
[6] = Cytotoxicity against human HCT15 cells assessed as growth inhibition at 10 uM; conditions: HCT-15, read-out: GI
SW-620 = test: Cytotoxicity against human SW620 cells assessed as growth inhibition at 10 uM; conditions: read-out: GI
HT-29 = test: Cytotoxicity against human HT-29 cells assessed as growth inhibition at 10 uM; conditions: read-out: GI
SK-MEL-2 = test: Cytotoxicity against human SK-MEL-2 cells assessed as growth inhibition at 10 uM; conditions: read-out: GI
COLO 205 = test: Cytotoxicity against human COLO205 cells assessed as growth inhibition at 10 uM; conditions: read-out: GI
SNB-19 = test: Cytotoxicity against human SNB19 cells assessed as growth inhibition at 10 uM; conditions: read-out: GI
SF-539 = test: Cytotoxicity against human SF539 cells assessed as growth inhibition at 10 uM; conditions: read-out: GI
RXF 393 = test: Cytotoxicity against human RXF393 cells assessed as growth inhibition at 10 uM; conditions: read-out: GI
HL-60(TB) = test: Cytotoxicity against human HL-60(TB) cells assessed as growth inhibition at 10 uM; conditions: read-out: GI
[7] = Cytotoxicity against human Hs578T cells assessed as growth inhibition at 10 uM; conditions: Hs-578T, read-out: GI
SF-295 = test: Cytotoxicity against human SF295 cells assessed as growth inhibition at 10 uM; conditions: read-out: GI
TK-10 = test: Cytotoxicity against human TK10 cells assessed as growth inhibition at 10 uM; conditions: read-out: GI
CCRF-CEM = test: Cytotoxicity against human CCRF-CEM cells assessed as growth inhibition at 10 uM; conditions: read-out: GI
MDA-MB-435 = test: Cytotoxicity against human MDA-MB-435 cells assessed as growth inhibition at 10 uM; conditions: read-out: GI
SR = test: Cytotoxicity against human SR cells assessed as growth inhibition at 10 uM; conditions: read-out: GI
CAKI-1 = test: Cytotoxicity against human CAKI-1 cells assessed as growth inhibition at 10 uM; conditions: read-out: GI
NCI-H460 = test: Cytotoxicity against human NCI-H460 cells assessed as growth inhibition at 10 uM; conditions: read-out: GI
SNB-75 = test: Cytotoxicity against human SNB75 cells assessed as growth inhibition at 10 uM; conditions: read-out: GI
NCI-H322M = test: Cytotoxicity against human NCI-H322M cells assessed as growth inhibition at 10 uM; conditions: read-out: GI
MDA-MB-231 [8] = test: Cytotoxicity against human MDA-MB-231 cells assessed as growth inhibition at 10 uM; conditions: read-out: GI
Malme-3M = test: Cytotoxicity against human MALME-3M cells assessed as growth inhibition at 10 uM; conditions: read-out: GI
BT-549 = test: Cytotoxicity against human BT549 cells assessed as growth inhibition at 10 uM; conditions: read-out: GI
SN12C = test: Cytotoxicity against human SN12C cells assessed as growth inhibition at 10 uM; conditions: read-out: GI
[9] = Cytotoxicity against human UO31 cells assessed as growth inhibition at 10 uM; conditions: UO-31, read-out: GI
MDA-MB-468 = test: Cytotoxicity against human MDA-MB-468 cells assessed as growth inhibition at 10 uM; conditions: read-out: GI
T47D = test: Cytotoxicity against human T47D cells assessed as growth inhibition at 10 uM; conditions: read-out: GI
MCF7 = test: Cytotoxicity against human MCF7 cells assessed as growth inhibition at 10 uM; conditions: read-out: GI
NCI-H522 = test: Cytotoxicity against human NCI-H522 cells assessed as growth inhibition at 10 uM; conditions: read-out: GI
[10] = Cytotoxicity against human UACC62 cells assessed as growth inhibition at 10 uM; conditions: UACC-62, read-out: GI
A549 = test: Cytotoxicity against human A549 cells assessed as growth inhibition at 10 uM; conditions: read-out: GI
[11] = Cytotoxicity against human OVCAR5 cells assessed as growth inhibition at 10 uM; conditions: OVCAR-5, read-out: GI

For C=C(C)[C@H]1O[C@H]2CC[C@@]3(C)[C@@](O)(CC[C@H]4[C@@H]5OC(C)(C)[C@H]6C[C@@H]7C(=C)Cc8c(Cl)cc9[nH]c(c5c9c8[C@@]76O)[C@@]43C)[C@@]23O[C@H]3[C@H]1O [PENITREM A], the inhibition of growth at 10 µM (MOLT-4) was 53.2%, the inhibition of growth at 10 µM (SF-268) was 71% and the inhibition at 15 µM (MDA-MB-231 [1]) was > 75%. It also gave an inhibition of growth at 10 µM (HOP-62) of 107%, an inhibition of growth at 10 µM (SK-MEL-5) of 68.3% and an inhibition of growth at 10 µM (M14) of 62.6%. For the same molecule, the inhibition of growth at 10 µM (KM12) was 71.5%, the inhibition of growth at 10 µM (PC-3) was 39.3% and the inhibition of growth at 10 µM (ACHN) was 75.2%. The inhibition of growth at 10 µM [2] was 76.2%, the inhibition of growth at 10 µM (SK-OV-3) was 109% and the inhibition of growth at 10 µM (786-0) was 93.1%. It also gave an inhibition of growth at 10 µM (DU-145) of 85.5%, an inhibition of growth at 10 µM (K562) of 66.1% and an inhibition of growth at 10 µM [3] of 83.2%. It also gave an inhibition of growth at 10 µM (HCT-116) of 67.4%, an inhibition of growth at 10 µM (NCI-H23) of 88.6% and an inhibition of growth at 10 µM (IGROV-1) of 74.9%. For the same molecule, the inhibition of growth at 10 µM (U-251) was 85.1%, the inhibition of growth at 10 µM [4] was 76.3% and the inhibition of growth at 10 µM (LOX IMVI) was 79.4%. For the same molecule, the inhibition of growth at 10 µM (HCC 2998) was 77%, the inhibition of growth at 10 µM (NCI-H226) was 76.8% and the inhibition of growth at 10 µM [5] was 92.6%. The inhibition of growth at 10 µM (SK-MEL-28) was 83.4%, the inhibition of growth at 10 µM [6] was 78.7% and the inhibition of growth at 10 µM (SW-620) was 93.3%. It also gave an inhibition of growth at 10 µM (HT-29) of 86.9%, an inhibition of growth at 10 µM (SK-MEL-2) of 95.1% and an inhibition of growth at 10 µM (COLO 205) of 91.3%. It also gave an inhibition of growth at 10 µM (SNB-19) of 67.7%, an inhibition of growth at 10 µM (SF-539) of 89% and an inhibition of growth at 10 µM (RXF 393) of 76.5%. It also gave an inhibition of growth at 10 µM (HL-60(TB)) of 74.7%, an inhibition of growth at 10 µM [7] of 94% and an inhibition of growth at 10 µM (SF-295) of 57.1%. For the same molecule, the inhibition of growth at 10 µM (TK-10) was 98.6%, the inhibition of growth at 10 µM (CCRF-CEM) was 57.2% and the inhibition of growth at 10 µM (MDA-MB-435) was 52.9%. The inhibition of growth at 10 µM (SR) was 46%, the inhibition of growth at 10 µM (CAKI-1) was 35.5% and the inhibition of growth at 10 µM (NCI-H460) was 85.5%. It also gave an inhibition of growth at 10 µM (SNB-75) of 53.7%, an inhibition of growth at 10 µM (NCI-H322M) of 65.2% and an inhibition of growth at 10 µM (MDA-MB-231 [8]) of 97.5%. For the same molecule, the inhibition of growth at 10 µM (Malme-3M) was 43.2%, the inhibition of growth at 10 µM (BT-549) was 98.2% and the inhibition of growth at 10 µM (SN12C) was 73.3%. The inhibition of growth at 10 µM [9] was 41%, the inhibition of growth at 10 µM (MDA-MB-468) was 69.6% and the inhibition of growth at 10 µM (T47D) was 73.9%. For the same molecule, the inhibition of growth at 10 µM (MCF7) was 55.8%, the inhibition of growth at 10 µM (NCI-H522) was 77.1% and the inhibition of growth at 10 µM [10] was 74.9%. For the same molecule, the inhibition of growth at 10 µM (A549) was 73.7% and the inhibition of growth at 10 µM [11] was 105%.
